Here are results for one compound from ChEMBL document CHEMBL1150097, “Majapolene A, a cytotoxic peroxide, and related sesquiterpenes from the red alga Laurencia majuscula” (1995).

The nature of this assay: Cytotoxicity against human NCI60 cells. Type of assay: functional.

In general, GI50 refers to the concentration at which growth is held to half of that of the control. A high value points to less potent growth inhibition. The TGI is the concentration at which net growth stops. Read a high TGI as less potent growth arrest. In turn, `CC1(C)CC(C23C=CC(CO)(CC2)OO3)CCC1Br` (mixture of isomers) [MAJAPOLENE A] returned a GI50 of 400 nM and a TGI of 900 nM. Moreover, the CC50 (read-out: LC50 (the source's name)) amounted to 2800 nM.
